# Assay results from patent US20080063601A1, “Compositions and methods relating to polycystic kidney disease” (priority 2004, published 2008).
# System: Pkd1^−/− murine kidney epithelial cells
# Test: Growth, p21 and active caspase-3 in Pkd1−/− kidney epithelial cells
# Type: cell-based
# Details: 100 nM
# Protocol: Total cell lysates (0.5% Triton X-100, 50 mM Tris pH 7.4, 150 mM NaCl, […]) were prepared for Western blot analysis and samples were run out by SDS-PAGE as per manufacturers' protocols. Brightfield images of cells were taken using a 10× or 40× objective. Confocal microscopy (40×) was used for immunofluorescence imaging of polycystin-2.
# Calcium response to triptolide was, thus, shown to be dependent on polycystin-2. The biological response to calcium flux was next assessed in the murine Pkd1^−/− cell line, by adding 100 nM triptolide to the cultured cells and observing cell growth over time. Within the first 24 hours of culture, a minimal number of detached cells was observed. […] In the absence of triptolide, this cell line underwent a population doubling every 48 hours. […] It is possible that additional signaling pathways are activated by triptolide when Pkd1 is expressed. […] Therefore, Applicant assessed whether the inhibition of proliferation observed was due to p21 re-expression upon triptolide treatment.
compound,measurement,setting,value
CC(C)[C@]12O[C@H]1[C@@H]1O[C@]13[C@]1(O[C@H]1C[C@H]1C4=C(CC[C@@]13C)C(=O)OC4)[C@@H]2O [triptolide],active caspase-3 (western blot),,failed to implicate triptolide induced apoptosis
same,p21 expression (western blot),96 hour time course,upregulated
same,cell growth,over 96 hours,growth arrested
